Patent US20110143197A1, “ELECTRODE ACTIVE MATERIAL FOR POWER STORAGE DEVICE AND POWER STORAGE DEVICE, AND ELECTRONIC EQUIPMENT AND TRANSPORTATION EQUIPMENT” (priority 2008, published 2011)

Tests used:
[1] = Cyclic voltammetry of evaluation battery (electrode properties), Test Example 2; format: physicochemical
Experimental: The electrode properties of the phenanthrenequinone-containing compound (1a) obtained in Example 1 were examined in the following manner. First, in an argon box equipped with a gas purifier, 20 mg of the phenanthrenequinone-containing compound (1a) serving as an electrode active material and 20 mg of acetylene black serving as a conductive auxiliary agent were uniformly mixed under an argon gas atmosphere. To the resultant mixture was added 1 ml of N-methyl-2-pyrrolidone serving as a solvent, and 5 mg of polyvinylidene fluoride serving as a binder was further added thereto, followed by uniform mixing, to prepare a black slurry. The binder was used in order to bond the electrode active material and the conductive auxiliary agent together.
The slurry thus obtained was applied to the surface of a 20 μm-thick aluminum foil (current collector), and vacuum-dried for 2 hours at room temperature. After drying, a disc having a diameter of 13.5 mm was punched out of the resultant structure to produce an electrode in which an active material layer containing a mixture of the electrode active material, the conductive auxiliary agent, and the binder was formed.
The electrode thus obtained was used as a working electrode, and metal lithium was used for a counter electrode and a reference electrode. These electrodes were immersed in an electrolyte to fabricate an evaluation battery, and the potential sweeping was performed in a potential range from 2.0 to 4.0 V relative to lithium. The sweeping rate was 0.1 mV/sec. As the electrolyte, a liquid electrolyte prepared by dissolving lithium fluoroborate in a concentration of 1.0 mol/L in a solvent mixture containing propylene carbonate and ethylene carbonate (volume ratio 1:1) was used. FIG. 4 is a cyclic voltammogram of the evaluation battery using the electrode active material of the present invention [phenanthrenequinone-containing compound (1a)].

[2] = Solubility in an electrolyte (ultraviolet-visible absorption spectrum and visual inspection), Test Example 1; format: physicochemical; details: 5.0 mmol/l in 1.0 mol/L lithium fluoroborate in propylene carbonate
Experimental: The solubility of the phenanthrenequinone-containing compounds and the phenanthrenequinone-containing polymers obtained in Examples 1 to 10 in an electrolyte was evaluated in the following manner.
A phenanthrenequinone-containing compound or a phenanthrenequinone-containing polymer as obtained in Examples 1 to 10 was mixed with 20 cc of an electrolyte so as to attain a concentration of 5.0 mmol/l, thereby giving a test liquid. This test liquid was subjected to ultraviolet-visible absorption spectrum measurement to examine the solubility of each compound in the electrolyte. The ultraviolet-visible absorption spectrum measurement was performed under the following measurement conditions: a measurement range of 190 to 900 nm and a reference solution of a liquid electrolyte. A UV-2550 (trade name) manufactured by SHIMADZU CORPORATION was used as the measurement apparatus. A liquid electrolyte prepared by dissolving lithium fluoroborate in a concentration of 1.0 mol/L in propylene carbonate was used as the electrolyte.
As a comparative example, a solubility test was performed in the same manner as described above using 9,10-phenanthrenequinone.

[3] = Coin battery charge-discharge test (metal lithium negative electrode), Test Example 3
Description: A coin battery as shown in FIG. 5 was fabricated as one example of the power storage device of the present invention. FIG. 5 is a vertical cross-sectional view schematically showing a configuration of a coin battery 1 that is one example of the power storage device of the present invention.
A positive electrode includes a positive electrode current collector 12 made of an aluminum foil and a positive electrode active material layer 13 formed on the positive electrode current collector 12 and containing the phenanthrenequinone-containing compound (1a). The positive electrode was produced in the same manner as in the electrode production method in Test Example 2. This positive electrode was disposed such that the positive electrode current collector 12 was brought into contact with the inner surface of a case 11, and a separator 14 made of a porous polyethylene sheet was placed on the positive electrode.
Then, a non-aqueous electrolyte was injected into the case 11. As the non-aqueous electrolyte, an electrolyte prepared by dissolving lithium hexafluorophosphate in a concentration of 1.25 mol/L in a solvent mixture containing ethylene carbonate and ethylmethyl carbonate (weight ratio 1:3) was used. […]
The charge-discharge capacity was calculated based on the initial discharge capacity of each of the coin batteries. […]

[4] = relative to lithium, sweep 2.0 to 4.0 V, 0.1 mV/sec

Compound	reversibility of redox reaction ([1]; cyclic voltammogram, FIG. 4)	dissolution from the electrode ([1]; during potential sweeping in liquid electrolyte)	current peak indicating the oxidation reaction [1, 4]	current peak indicating the second-step reduction reaction [1, 4]	current peak indicating the first-step reduction reaction ([1]; relative to lithium, sweep 2.0 to 4.0 V, 0.1 mV/sec, 1.0 mol/L lithium fluoroborate in propylene carbonate/ethylene carbonate 1:1)	observation by visual inspection of electrolyte (coloration, dissolution) [2]	absorption peak in ultraviolet-visible absorption spectrum of test liquid (solubility in electrolyte) ([2]; measurement range 190 to 900 nm)	appearance of electrolyte when battery disassembled after charging and discharging [3]
O=C1C(=O)c2cc(-c3ccc(-c4ccc5c(c4)C(=O)C(=O)c4ccccc4-5)cc3)ccc2-c2ccccc21 [Compound 1a, 1,4-(9,10-phenanthraquinone)-benzene]	underwent a reversible redox reaction	no dissolution	around 3.5 V	around 2.6 V	around 3.1 V	–	–	–
O=C1C(=O)c2ccccc2-c2ccccc21 [9,10-phenanthrenequinone]	–	–	–	–	–	colored in yellow, as a result of the compound being entirely dissolved in the electrolyte	a large absorption peak was observed near 250 to 350 nm	green coloration of the electrolyte
